Source: US20240238423A9, “TETRAHYDROISOQUINOLINE HETEROBIFUNCTIONAL BCL-XL DEGRADERS” (Treeline Biosciences, Inc., priority 2022, published 2024)
Like-named read-outs stand apart in the source and are kept apart here.

Molecular target: T1, Human BCL-XL protein (N-terminal HiBiT tagged BCL-XL in HT1080 cells) (Homo sapiens, UniProt Q07817)
T1 construct: expressed in transfected cells; host or cells: HT-1080 (ATCC CCL-121), stably transduced with lentivirus pLV-UBC-N-HiBiT-BCL-XL-PGK-puro and selected with puromycin
Test: HiBiT based degradation assay
Format: cell-based
Settings: HT1080 cells expressing HiBiT-BCL-XL; for Ymin (6 h) / Ymin (24 h): BCL-XL degradation normalized with DMSO control; for DC50: BCL-XL degradation
Method in brief: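 This HiBiT degradation assay measured loss of BCL-XL in HT1080 cells that stably express an N-terminal HiBiT-BCL-XL fusion delivered by lentivirus. Cells were added to compound-spotted 384-well plates, and luminescence was read on a PHERAstar FSX reader. Signal was expressed relative to DMSO controls, curves were fitted by four-parameter logistic regression, and for hook-shaped curves the Ymin point served as the bottom plateau when calculating EC50.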

T1 sequence (Q07817 whole entry): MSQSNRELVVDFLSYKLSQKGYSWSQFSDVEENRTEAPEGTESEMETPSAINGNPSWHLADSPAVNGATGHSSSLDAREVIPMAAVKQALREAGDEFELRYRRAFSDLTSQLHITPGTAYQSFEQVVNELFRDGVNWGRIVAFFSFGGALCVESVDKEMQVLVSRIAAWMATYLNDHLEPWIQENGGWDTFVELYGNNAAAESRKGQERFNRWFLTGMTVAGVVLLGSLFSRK

Structure (SMILES) | Ymin (6 h) | Ymin (24 h) | DC50 (6 h, read-out: EC50 (6 h)) [nM] | DC50 (24 h, read-out: EC50 (24 h)) [nM]
Cc1c(OCCCCC2CCN(CC(=O)Nc3ccc4c(C5CCC(=O)NC5=O)nn(C)c4c3)CC2)cccc1-c1ccc(N2CCc3cccc(C(=O)Nc4nc5ccccc5s4)c3C2)nc1C(=O)O (stereo not drawn) [Compound 203, 6-(8-(benzo[d]thiazol-2-ylcarbamoyl)-3,4-dihydroisoquinolin-2(1H)-yl)-3-(3-(4-(1-(2-((3-(2,6-dioxopiperidin-3-yl)-1-methyl-1H-indazol-6-yl)amino)-2-oxoethyl)piperidin-4-yl)butoxy)-2-methylphenyl)picolinic acid] | B (50% ≤ Ymin < 70%) | A (Ymin < 50%) | < 100 | < 100
Cc1c(OCC2CC3(CCN(CC(=O)Nc4cccc5c(C6CCC(=O)NC6=O)nn(C)c45)CC3)C2)cccc1-c1ccc(N2CCc3cccc(C(=O)Nc4nc5ccccc5s4)c3C2)nc1C(=O)O (stereo not drawn) [Compound 226, 6-[8-(1,3-benzothiazol-2-ylcarbamoyl)-3,4-dihydro-1H-isoquinolin-2-yl]-3-[3-[[7-[2-[[3-(2,6-dioxo-3-piperidyl)-1-methyl-indazol-7-yl]amino]-2-oxo-ethyl]-7-azaspiro[3.5]nonan-2-yl]methoxy]-2-methyl-phenyl]pyridine-2-carboxylic acid] | C (Ymin ≥ 70%) | B (50% ≤ Ymin < 70%) | < 100 | 100 to 1000
Cc1c(O[C@H]2CC[C@H](CCCN3CCN(c4ccc5c(C6CCC(=O)NC6=O)nn(C)c5c4)C[C@@H]3C)CC2)cccc1-c1ccc(N2CCc3cccc(C(=O)Nc4nc5ccccc5s4)c3C2)nc1C(=O)O (stereo partly drawn) [Compound 273b, 6-(8-(benzo[d]thiazol-2-ylcarbamoyl)-3,4-dihydroisoquinolin-2(1H)-yl)-3-(3-(((1R,4r)-4-(3-((2S)-4-(3-(2,6-dioxopiperidin-3-yl)-1-methyl-1H-indazol-6-yl)-2-methylpiperazin-1-yl)propyl)cyclohexyl)oxy)-2-methylphenyl)picolinic acid] | – | A (Ymin < 50%) | – | < 100
Cc1c(OCCN2CCN(CC(=O)N3CCN(c4ccc5c(C6CCC(=O)NC6=O)nn(C)c5c4)CC3)CC2)cccc1-c1ccc(N2CCc3cccc(C(=O)Nc4nc5ccccc5s4)c3C2)nc1C(=O)O (stereo not drawn) [Compound 141, 6-(8-(benzo[d]thiazol-2-ylcarbamoyl)-3,4-dihydroisoquinolin-2(1H)-yl)-3-(3-(2-(4-(2-(4-(3-(2,6-dioxopiperidin-3-yl)-1-methyl-1H-indazol-6-yl)piperazin-1-yl)-2-oxoethyl)piperazin-1-yl)ethoxy)-2-methylphenyl)picolinic acid] | B (50% ≤ Ymin < 70%) | A (Ymin < 50%) | < 100 | < 100
Cc1c(O[C@H]2CC[C@H](C[C@@H](C)CCN3CCN(c4ccc5c(C6CCC(=O)NC6=O)nn(C)c5c4)CC3)CC2)cccc1-c1ccc(N2CCc3cccc(C(=O)Nc4nc5ccccc5s4)c3C2)nc1C(=O)O (single isomer, unassigned) [Compound 307b] | – | A (Ymin < 50%) | – | < 100
Cc1c(OCCO[C@H]2C[C@H]3CC[C@@H](C2)N3CC(=O)Nc2cccc3c(C4CCC(=O)NC4=O)nn(C)c23)cccc1-c1ccc(N2CCc3cccc(C(=O)Nc4nc5ccccc5s4)c3C2)nc1C(=O)O (stereo partly drawn) [Compound 224b, 6-(8-(benzo[d]thiazol-2-ylcarbamoyl)-3,4-dihydroisoquinolin-2(1H)-yl)-3-(3-(2-(((1R,3r,5S)-8-(2-((3-(2,6-dioxopiperidin-3-yl)-1-methyl-1H-indazol-7-yl)amino)-2-oxoethyl)-8-azabicyclo[3.2.1]octan-3-yl)oxy)ethoxy)-2-methylphenyl)picolinic acid] | – | B (50% ≤ Ymin < 70%) | – | < 100
Cc1c(OCCCC2CCN(CC3CCN(c4ccc5c(C6CCC(=O)NC6=O)nn(C)c5c4)CC3)CC2)cccc1-c1ccc(N2CCc3cccc(C(=O)Nc4nc5ccccc5s4)c3C2)nc1C(=O)O (stereo not drawn) [Compound 247, 6-[8-(1,3-benzothiazol-2-ylcarbamoyl)-3,4-dihydro-1H-isoquinolin-2-yl]-3-[3-[3-[1-[[1-[3-(2,6-dioxo-3-piperidyl)-1-methyl-indazol-6-yl]-4-piperidyl]methyl]-4-piperidyl]propoxy]-2-methyl-phenyl]pyridine-2-carboxylic acid] | – | A (Ymin < 50%) | – | < 100
Cc1c(OCCCN2[C@H](C)CN(CC(=O)Nc3ccc4c(C5CCC(=O)NC5=O)nn(C)c4c3)C[C@@H]2C)cccc1-c1ccc(N2CCc3cccc(C(=O)Nc4nc5ccccc5s4)c3C2)nc1C(=O)O (stereo partly drawn) [Compound 131a, 6-[8-(1,3-benzothiazol-2-ylcarbamoyl)-3,4-dihydro-1H-isoquinolin-2-yl]-3-[3-[3-[(2R,6S)-4-[2-[[3-(2,6-dioxo-3-piperidyl)-1-methyl-indazol-6-yl]amino]-2-oxo-ethyl]-2,6-dimethyl-piperazin-1-yl]propoxy]-2-methyl-phenyl]pyridine-2-carboxylic acid] | A (Ymin < 50%) | A (Ymin < 50%) | < 100 | < 100
Cc1c(OCC(F)(F)CN2C[C@@H](C)N(CC(=O)N3CCN(c4cccc5c(C6CCC(=O)NC6=O)nn(C)c45)CC3)[C@@H](C)C2)cccc1-c1ccc(N2CCc3cccc(C(=O)Nc4nc5ccccc5s4)c3C2)nc1C(=O)O (stereo partly drawn) [Compound 179a, 6-[8-(1,3-benzothiazol-2-ylcarbamoyl)-3,4-dihydro-1H-isoquinolin-2-yl]-3-[3-[3-[(3R,5S)-4-[2-[4-[3-(2,6-dioxo-3-piperidyl)-1-methyl-indazol-7-yl]piperazin-1-yl]-2-oxo-ethyl]-3,5-dimethyl-piperazin-1-yl]-2,2-difluoro-propoxy]-2-methyl-phenyl]pyridine-2-carboxylic acid] | – | A (Ymin < 50%) | – | < 100
Cc1c(OCCCN2CCN(CC3CCN(c4ccc5c(C6CCC(=O)NC6=O)nn(C)c5c4)CC3)CC2)cccc1-c1ccc(N2CCc3cccc(C(=O)Nc4nc5ccccc5s4)c3C2)nc1C(=O)O (stereo not drawn) [Compound 189, 6-(8-(benzo[d]thiazol-2-ylcarbamoyl)-3,4-dihydroisoquinolin-2(1H)-yl)-3-(3-(3-(4-((1-(3-(2,6-dioxopiperidin-3-yl)-1-methyl-1H-indazol-6-yl)piperidin-4-yl)methyl)piperazin-1-yl)propoxy)-2-methylphenyl)picolinic acid] | – | A (Ymin < 50%) | – | < 100
Cc1c(O[C@H]2CC[C@H](CCC(=O)N3CCN(c4ccc5c(C6CCC(=O)NC6=O)nn(C)c5c4)CC3)CC2)cccc1-c1ccc(N2CCc3cccc(C(=O)Nc4nc5ccccc5s4)c3C2)nc1C(=O)O (stereo partly drawn) [Compound 138a, 6-(8-(benzo[d]thiazol-2-ylcarbamoyl)-3,4-dihydroisoquinolin-2(1H)-yl)-3-(3-(((1r,4r)-4-(3-(4-(3-(2,6-dioxopiperidin-3-yl)-1-methyl-1H-indazol-6-yl)piperazin-1-yl)-3-oxopropyl)cyclohexyl)oxy)-2-methylphenyl)picolinic acid] | B (50% ≤ Ymin < 70%) | B (50% ≤ Ymin < 70%) | 1000 to 10000 | < 100
Cc1c(OCC[C@@H]2CCN(CC(=O)Nc3ccc4c(C5CCC(=O)NC5=O)nn(C)c4c3)C2)cccc1-c1ccc(N2CCc3cccc(C(=O)Nc4nc5ccccc5s4)c3C2)nc1C(=O)O (stereo partly drawn) [Compound 219a, 6-[8-(1,3-benzothiazol-2-ylcarbamoyl)-3,4-dihydro-1H-isoquinolin-2-yl]-3-[3-[2-[(3S)-1-[2-[[3-(2,6-dioxo-3-piperidyl)-1-methyl-indazol-6-yl]amino]-2-oxo-ethyl]pyrrolidin-3-yl]ethoxy]-2-methyl-phenyl]pyridine-2-carboxylic acid] | – | A (Ymin < 50%) | – | < 100
Cc1c(O[C@H]2CC[C@H](CCC(=O)N3CCN(c4cccc5c(C6CCC(=O)NC6=O)nn(C)c45)CC3)CC2)cccc1-c1ccc(N2CCc3cccc(C(=O)Nc4nc5ccccc5s4)c3C2)nc1C(=O)O (stereo partly drawn) [Compound 146a, 6-(8-(benzo[d]thiazol-2-ylcarbamoyl)-3,4-dihydroisoquinolin-2(1H)-yl)-3-(3-(((1r,4r)-4-(3-(4-(3-(2,6-dioxopiperidin-3-yl)-1-methyl-1H-indazol-7-yl)piperazin-1-yl)-3-oxopropyl)cyclohexyl)oxy)-2-methylphenyl)picolinic acid] | A (Ymin < 50%) | A (Ymin < 50%) | 100 to 1000 | < 100
Cc1c(O[C@H]2CC[C@H](CCCC(=O)N3CCN(c4cccc5c(C6CCC(=O)NC6=O)nn(C)c45)CC3)CC2)cccc1-c1ccc(N2CCc3cccc(C(=O)Nc4nc5ccccc5s4)c3C2)nc1C(=O)O (stereo partly drawn) [Compound 214a, 6-(8-(benzo[d]thiazol-2-ylcarbamoyl)-3,4-dihydroisoquinolin-2(1H)-yl)-3-(3-(((1s,4r)-4-(4-(4-(3-(2,6-dioxopiperidin-3-yl)-1-methyl-1H-indazol-7-yl)piperazin-1-yl)-4-oxobutyl)cyclohexyl)oxy)-2-methylphenyl)picolinic acid] | – | B (50% ≤ Ymin < 70%) | – | < 100
Cc1c(OCCCC2CC3(C2)CN(CC(=O)Nc2ccc4c(C5CCC(=O)NC5=O)nn(C)c4c2)C3)cccc1-c1ccc(N2CCc3cccc(C(=O)Nc4nc5ccccc5s4)c3C2)nc1C(=O)O (stereo not drawn) [Compound 286, 6-[8-(1,3-benzothiazol-2-ylcarbamoyl)-3,4-dihydro-1H-isoquinolin-2-yl]-3-[3-[3-[2-[2-[[3-(2,6-dioxo-3-piperidyl)-1-methyl-indazol-6-yl]amino]-2-oxo-ethyl]-2-azaspiro[3.3]heptan-6-yl]propoxy]-2-methyl-phenyl]pyridine-2-carboxylic acid] | – | A (Ymin < 50%) | – | < 100
